# Experimental data from patent US20200068887A1, “TREATMENT FOR REMOVING ECTOPARASITES FROM FISH” (priority 2016, published 2020).
# Several values for one entry are separate records, joined by “and”; a condition that tells them apart may be missing. Equal values may be shown once.
# Assays:
# fish = experiment: Safety of imidacloprid treatment on fish; type: in vivo
# Protocol: The safety of the imidacloprid treatment on fish was assessed. Fish held in a flow through tank containing 271.8 L of sea water were exposed to 65 ppm w/v of the active ingredient imidacloprid. 17.67 g of imidacloprid was dissolved in 100 ml of dimethyl sulfoxide (DMSO) and the solution was added to approximately 900 ml sea water and mixed. The flow on the through tank was disabled and the solution of imidacloprid was added.
# The fish were exposed to 65 ppm imidacloprid in static water for 1 hour and observed for behavioural changes at 5-10 minute intervals. The fish were then held for a further 7 days before being terminated.
# Lepeophtheirus salmonis = experiment: Relative efficacy study (optimisation of treatment concentration); type: in vivo; settings: for Parasite clearance: n=2, ±SEM
# Protocol: 120 salmon fish (Salmo salar) were divided across five flow-through treatment tanks and acclimated for 24 hours prior to parasite challenge.
# Egg strings removed from ovigerous female Lepeophtheirus salmonis were collected and cultured until infective copepodids were produced. The copepodids were then evenly distributed into five bottles containing sea water and stored at ˜10° C. overnight. In preparation for the challenge, water flows in the treatment tanks were stopped and light levels reduced. 650±20 copepodids (˜27 per host) were added to the static water and the tanks maintained in total darkness for 7 hours after which light levels were raised and the water flow resumed.
# Fish were randomly divided into ten groups of ten fish and held in static ‘treatment buckets’ containing 30 L of water and high aeration as shown in Table 3.
# Eight of the groups (3-10) were treated with the required concentrations of imidacloprid for 60 minutes: imidacloprid was dissolved in DMSO and added to ˜1L of tank water prior to addition to the treatment buckets. The remaining group and its replicate (1 & 2) were DMSO controls at 0.03%.
# Experimental animals were monitored closely for adverse reactions and the status of the parasite infection. Where possible the time at which all parasites were thought to have detached was recorded. As treatments were performed in static systems, temperature and dissolved oxygen were regularly monitored throughout the procedure and aeration adjusted as required.
# After the treatment period, the test animals were removed from the treatment solution and humanly euthanised. Each fish was weighed, measured, and its individual parasite burden assessed. The number of parasites in the treatment solution was also counted and qualitatively assessed for: sex and maturity, apparent signs of neonicotinoid poisoning, and/or potential recovery.
# Logistic regression was used to compare parasite clearance after treatment with each of the concentration. Logistic regression analyses were performed using the glm function in R v.2.13.0 and assumed a binomial or quasi-binomial error distribution (determined through the comparison of the null deviance with the degrees of freedom).
# [1] = tested on: pre-adult and adult sea lice; experiment: Timescale of effect of imidacloprid against sea lice on killed salmon hosts; type: in vivo; settings: for lice that left the host: around 12° C.
# Protocol: To determine the timescale of the effect of imidacloprid, salmon infected with pre-adult and adult sea lice were removed from a stock tank and killed using a sharp blow to the head.
# For fish exposed to 0 ppm imidacloprid (negative controls), observations were made for 60 minutes. […] Three fish per treatment group were tested.
# Observations on the time at which lice left the host, and the sex and stage of the sea louse was noted. Any lice that left the host were transferred to clean sea water immediately. Furthermore, any lice remaining on the host at the end of the exposure period were removed from the host and transferred to clean sea water.
# Lice were observed both shortly after and approximately 2 hours after the end of the exposure period.
# The ratio of male to female sea lice was around 50:50. The water temperature was around 12° C.
# sea lice = experiment: Comparison on isolated sea lice (in vitro bath exposure); settings: 60 min exposure; for % effect / Immobilised / Live: registered approx. 20 h after end of exposure
# Protocol: Both pre-adult and adult stages (mobile stages) of both sexes were used, and they were equally distributed among groups. The sea lice were exposed to imidacloprid for 60 minutes, azamethiphos for 60 minutes and deltamethrin for 30 minutes in one litre baths at a range of concentrations (Tables 6, 7 and 8). The sea lice were transferred to clean aerated seawater after treatment. The temperature of the seawater during the experiment was 12° C., but during exposure the temperature raised to approx. 14° C. in regimes exposed for 60 min. (imidacloprid and azamethiphos) and to 13° C. for the regime exposed in 30 minutes (deltamethrin).
# The numbers of live and immobilised (including killed) lice in each regime were registered approximately 20 h after end of exposure. Each louse was individually investigated.
# [2] = isolated sea lice, immobilisation approx. 20 h after exposure
smiles,measurement,setting,value
O=[N+]([O-])NC1=NCCN1Cc1ccc(Cl)nc1 [imidacloprid],adverse reactions during monitoring after exposure,"fish; 65 ppm w/v for 1 hour, monitored a further 7 days",no adverse reactions being noted
same,external pathologies on termination,"fish; 65 ppm w/v for 1 hour, terminated after 7 days",no external pathologies were noted
same,changes in fish behaviour during the exposure period,"fish; 65 ppm w/v, static water, 1 hour",No observable changes in fish behaviour
same,parasites remaining attached to their hosts at sampling,"Lepeophtheirus salmonis; 10 mg/l, 60 min",20%
same,Parasite clearance,"Lepeophtheirus salmonis; 10 mg/l, 60 min",80±11%
same,parasites remaining attached to their hosts at sampling,"Lepeophtheirus salmonis; 15 mg/l, 60 min",8%
same,Parasite clearance,"Lepeophtheirus salmonis; 15 mg/l, 60 min",92±4%
same,parasites remaining attached to their hosts at sampling,"Lepeophtheirus salmonis; 20 mg/l, 60 min",8%
same,Parasite clearance,"Lepeophtheirus salmonis; 20 mg/l, 60 min",92±7%
same,parasites remaining attached to their hosts at sampling,"Lepeophtheirus salmonis; 25 mg/l, 60 min",3%
same,Parasite clearance,"Lepeophtheirus salmonis; 25 mg/l, 60 min",97±3%
same,parasite infection removed,"Lepeophtheirus salmonis; all four dosages (10, 15, 20, 25 mg/l), 60 minute treatment",80-100%
same,optimum concentration within the range tested,"Lepeophtheirus salmonis; range 10-25 mg/l, 60 min, no significant increase in efficacy above",15 mg/L
same,lice considered dead,"[1]; 20 mg/L, 30 minutes post-exposure, of 49 lice",two
same,signs of recovery in clean sea water,"[1]; 20 ppm, lice exposed for 30 minutes",No lice exposed for 30 minutes showed signs of recovery
same,lice deemed alive and responsive,"[1]; 20 ppm, out of 49 lice",Twelve
same,lice considered dead,"[1]; 50 ppm, 2 hours p.e., of 21 lice",14 lice
same,lice considered dead,"[1]; 50 ppm, at 30 minutes, of 21 lice",four
same,lice considered dead,"[1]; 100 ppm, 2 hours p.e.",17/28
same,lice considered dead,"[1]; 100 ppm, end of the exposure period, of 28 lice",four
same,lice considered dead,"[1]; 200 ppm, 2 hours post-exposure, of 26 lice",Six
same,lice considered dead,"[1]; 200 ppm, end of the exposure period, of 26 lice",four
same,lice considered dead,"[1]; 500 ppm, 30 minutes p.e., out of 20 lice",Six
same,lice considered dead,"[1]; 500 ppm, 2 hours p.e.",15/20
same,lice that left the host,"[1]; 500 ppm, within the first 9 minutes",around 70%
same,lice that left the host,"[1]; between 20 and 200 ppm, within the first 15 minutes",around 50%
same,% effect,sea lice; imidacloprid 5 ppm,30%
same,Immobilised,sea lice; imidacloprid 5 ppm,3
same,Live,sea lice; imidacloprid 5 ppm,7
same,% effect,sea lice; imidacloprid 10 ppm,40% and 50%
same,Immobilised,sea lice; imidacloprid 10 ppm,4 and 5
same,Live,sea lice; imidacloprid 10 ppm,6 and 5
same,% effect,sea lice; imidacloprid 15 ppm,100%
same,Immobilised,sea lice; imidacloprid 15 ppm,10
same,Live,sea lice; imidacloprid 15 ppm,0
same,% effect,sea lice; imidacloprid 20 ppm,100%
same,Immobilised,sea lice; imidacloprid 20 ppm,10
same,Live,sea lice; imidacloprid 20 ppm,0
same,% effect,sea lice; imidacloprid 30 ppm,100%
same,Immobilised,sea lice; imidacloprid 30 ppm,10
same,Live,sea lice; imidacloprid 30 ppm,0
same,estimated EC90 value,sea lice; [2],14.4 ppm
same,estimated ECso value,sea lice; [2],7.6 ppm
